Measurements from patent publication US11118160B2, “Probiotic composition for enhancing an insects resistance to a pesticide” (The Regents of the University of California, priority 2017, dated 2021).

Experiments:
[1] = test system: Acetobacter in the insect gut; experiment: Remodeling of the gut microbiome in response to pesticide exposure (FIG. 1); assay type: in vivo, Drosophila melanogaster; conditions: exposure of flies
Description: (§1) The immediate and long-term responses of the gut microbiome to the top ten most utilized herbicides in the United States are measured using the model organism Drosophila melanogaster. By utilizing both gnotobiotic and wild-type flies in these perturbations, effects specifically due to the microbiome are isolated. Based on the results of the fly model, compounds are tested in mice in pre-adolescent exposure scenarios and long-term effects. As in the fly, genomic and metabolomics techniques are used. Detailed, life course assays throughout 12-week span would provide an extensive map of the dynamic composition of mammalian gut microbiomes. Identification of microbiome chemical and genetic interactions are obtained by utilizing the collaborative cross mice and also specified microbial compositions. Pesticide-induced changes in behavior are correlated with changes in the microbiome, while controlling for genetic background.
AIM 1 Screen 20 most commonly used agricultural pesticides in the United States. Determine which pesticides impact microbiome composition in adult flies, leveraging the viability of germ-free animals and rapid life cycle. Measure the immediate (2 hrs) and long-term (10 days) responses of the microbiome to exposure using methods described below.
1C) 16S-seq and microarray of microbiome before and after perturbation to quantify all microbial species and their transcriptomes. […]

Drosophila melanogaster [2] = experiment: Fly behavioral phenotype after pesticide exposure; assay type: in vivo; conditions: exposed flies
Text: 1D) Automated behavioral screening in 2D population cages with social affinity, aggression, and mating behavioral quantitative phenotypes. These are ideal because they integrate many aspects of the perturbed animal system, and will allow one skilled in the art to identify subtle neurological phenotypes may be missed by other modalities.
Fly behavioral studies: A 2D cage design with CCD video and fly tracking software is utilized widely by the community (19270697). This techniques enables the automated quantification of social affinity, aggression, and mating behavioral phenotypes.

Drosophila melanogaster [3] = experiment: Host genome-wide transcription response to chronic pesticide exposure (FIGS. 4-5); assay type: in vivo; conditions: 2 mM atrazine
Text: 1C) 16S-seq and microarray of microbiome before and after perturbation to quantify all microbial species and their transcriptomes. For treatments with strong effects, sequence the fly gut transcriptome (RNA-seq) to determine gene networks and pathways affected by exposure.

Drosophila melanogaster [4] = experiment: Survival of wild-type and gnotobiotic / germ free flies exposed to atrazine (FIGS. 5-6); assay type: in vivo
Description: as §1
Axenic adult flies are generated and exposures are recapitulated. […] Further, GF flies are fully rescued and wild-type survival curves are restored by feeding flies the bacterial culture prior to exposure. Similar rescue experiments with other microbes are attempted, none of which are rescued.

SMILES | effect on Acetobacter in the insect gut [1] | behavioral phenotype induced (Drosophila melanogaster [2]) | host response to exposure (transcription) (Drosophila melanogaster [3]) | survival of exposed germ free (GF) flies vs control flies with wild-type microbiomes (Drosophila melanogaster [4]; axenic adult flies) | lethality to the host (Drosophila melanogaster [4]; flies, extremely high doses) | susceptibility to toxicity, gnotobiotic flies lacking the atrazine metabolism pathway vs wild-type strains (Drosophila melanogaster [4]; gnotobiotic flies vs wild-type strains having the pathway)
CCNc1nc(Cl)nc(NC(C)C)n1 [Atrazine, atrazine] | induce the collapse of Acetobacter | induces a hyperactive phenotype | induces an adaptive response associated largely with the transport of lipids | die earlier than control flies | not deadly at extremely high doses | significantly more susceptible to toxicity
C[n+]1ccc(-c2cc[n+](C)cc2)cc1 [Paraquat, paraquat] | induce the collapse of Acetobacter | – | – | – | – | –
